This is an account of results in PubChem BioAssay (NCI).

Some test systems named below: 786-0 renal; A498 renal; COLO 205 colon; HS 578T breast; IGROV1 ovarian; MDA-MB-435; OVCAR-3 ovarian; OVCAR-4 ovarian; SNB-19 CNS; UACC-257 melanoma; UO-31 renal; SNB-75 CNS.
Holding throughout (assay): NCI-60 cell line screen, 48 h

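Where inhibition never reached the appropriate level, the endpoint shown equals the highest concentration tested. Otherwise, values were interpolated linearly from a five-concentration, 48-hour dose response in 96-well plates. TGI marks complete inhibition of growth.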 Some results are limits rather than exact numbers.

`CCC1(CCSC(=N)N)C(=O)NC(=O)NC1=O`: the TGI in the assay with 786-0 renal, in the assay on A498 renal, with COLO 205 colon, in the assay with HS 578T breast, in the assay on IGROV1 ovarian and in the assay on MDA-MB-435 was more than 100 µM in each case. Further, the TGI in the assay on OVCAR-3 ovarian, in the assay on OVCAR-4 ovarian, with SNB-19 CNS, in the assay with UACC-257 melanoma and with UO-31 renal was more than 100 µM in each case.

On to `C=C1CC[C@@H](Br)C(C)(C)[C@]12CCC(C)(O)C(Cl)C2` (some centres undefined), for which the TGI in the assay on A498 renal was 44.7 µM; in the assay with COLO 205 colon it was 29.6 µM; in the assay with IGROV1 ovarian it was 44 µM; with OVCAR-3 ovarian, 35.8 µM; in the assay on SNB-19 CNS, 43.4 µM; in the assay with SNB-75 CNS, 78.1 µM. Also, the TGI amounted to 32.4 µM in the assay with UACC-257 melanoma and 32 µM in the assay with UO-31 renal.

`O=C(O)NCc1ccccc1` (tested in a mixture with another compound): the TGI in the assay with 786-0 renal is more than 100 µM; with A498 renal, 85.3 µM; in the assay with COLO 205 colon, 43.3 µM; in the assay on HS 578T breast it was more than 82.8 µM; with IGROV1 ovarian, more than 100 µM; with MDA-MB-435 it was more than 86.8 µM. Also, the TGI in the assay with OVCAR-3 ovarian is more than 96.1 µM; in the assay on OVCAR-4 ovarian it was more than 95.8 µM; in the assay with SNB-19 CNS, more than 100 µM; in the assay on SNB-75 CNS, 60.6 µM; in the assay with UACC-257 melanoma it was more than 95.9 µM; in the assay with UO-31 renal, 91.9 µM.

Take `CC(=O)OC/C=C/Cn1ncc(=O)[nH]c1=O`: the TGI in the assay on A498 renal, in the assay with COLO 205 colon, with HS 578T breast, in the assay on IGROV1 ovarian, with MDA-MB-435 and in the assay with OVCAR-3 ovarian was more than 100 µM each time. Besides, the TGI with SNB-19 CNS, in the assay with SNB-75 CNS and in the assay with UO-31 renal was more than 100 µM throughout.

On to `O=[As](O)(O)c1ccc(N=Nc2ccc([As](=O)(O)O)cc2)cc1`, for which the TGI in the assay with 786-0 renal, in the assay on A498 renal, in the assay on HS 578T breast, with IGROV1 ovarian, in the assay on MDA-MB-435 and in the assay on OVCAR-3 ovarian was more than 100 µM each time. The TGI in the assay with OVCAR-4 ovarian, in the assay on SNB-19 CNS, in the assay on UACC-257 melanoma and in the assay on UO-31 renal was more than 100 µM in each case.

Consider `Nc1nncc2c1ccn2C1OC(CO)C(O)C1O` (centres undefined), for which the TGI in the assay on A498 renal, in the assay with COLO 205 colon, with IGROV1 ovarian, with OVCAR-3 ovarian, with OVCAR-4 ovarian and in the assay on SNB-19 CNS was more than 100 µM throughout. Moreover, the TGI in the assay on SNB-75 CNS, in the assay with UACC-257 melanoma and with UO-31 renal was more than 100 µM in each case.

As for `O=C(O)CCSCc1ccc(I)cc1`, the TGI in the assay on 786-0 renal, with A498 renal, with COLO 205 colon, with HS 578T breast, with IGROV1 ovarian and with MDA-MB-435 was more than 100 µM each time. The TGI in the assay on OVCAR-3 ovarian, with OVCAR-4 ovarian, in the assay on SNB-19 CNS, with SNB-75 CNS, in the assay on UACC-257 melanoma and with UO-31 renal was more than 100 µM each time.

Consider `COc1cc(N/N=C/C#N)cc(OC)c1OC`, for which the TGI in the assay on A498 renal, in the assay with COLO 205 colon, in the assay on HS 578T breast, in the assay on IGROV1 ovarian, with MDA-MB-435 and with OVCAR-3 ovarian was more than 10 µM each time. For the same molecule, the TGI with OVCAR-4 ovarian, with SNB-19 CNS, with SNB-75 CNS and in the assay with UO-31 renal was more than 10 µM each time.

`Cc1cc2c(cc1C)[n+](=O)c(C#N)c(Cl)n2[O-]`: the TGI is 39.5 µM with A498 renal; 21.7 µM in the assay on COLO 205 colon; more than 100 µM with HS 578T breast; 33.3 µM in the assay with IGROV1 ovarian; more than 100 µM with MDA-MB-435; 20.6 µM in the assay with OVCAR-3 ovarian. The TGI in the assay on OVCAR-4 ovarian is 31.2 µM; in the assay on SNB-19 CNS it was more than 100 µM; with SNB-75 CNS, 45.2 µM; with UACC-257 melanoma, 27 µM; in the assay with UO-31 renal it was 32.2 µM.

Consider `O=C(CCl)NC(Cc1ccc(F)cc1)C(=O)O` (centres undefined), for which the TGI in the assay on A498 renal, with COLO 205 colon, in the assay on IGROV1 ovarian, with OVCAR-3 ovarian, with OVCAR-4 ovarian and in the assay on SNB-19 CNS was more than 100 µM each time. Further, the TGI in the assay with SNB-75 CNS, in the assay with UACC-257 melanoma and in the assay with UO-31 renal was more than 100 µM in each case.

For the molecule `CCOC(=O)[C@H]1Nc2c(cccc2[N+](=O)[O-])[C@H]2OCC[C@@H]12`, the TGI with COLO 205 colon, in the assay on IGROV1 ovarian, with OVCAR-3 ovarian, in the assay with OVCAR-4 ovarian, in the assay on SNB-19 CNS and in the assay with SNB-75 CNS was more than 100 µM throughout. Besides, the TGI in the assay on UACC-257 melanoma was 86.1 µM; in the assay on UO-31 renal, more than 100 µM.

On to `CC(C)OC(=O)C1=C(O)c2ccccc2S(=O)(=O)N1`, for which the TGI in the assay on 786-0 renal, in the assay with A498 renal, with COLO 205 colon, in the assay with IGROV1 ovarian, in the assay on OVCAR-3 ovarian and in the assay on OVCAR-4 ovarian was more than 100 µM throughout. The TGI with SNB-19 CNS, in the assay on SNB-75 CNS and in the assay on UACC-257 melanoma was more than 100 µM each time.

On to `Nc1c(-c2nc3ccccc3o2)sc(=S)n1-c1ccc(Cl)cc1`, for which the TGI with 786-0 renal is 22.9 µM; in the assay with A498 renal, 99.7 µM; in the assay on COLO 205 colon it was more than 100 µM; with HS 578T breast it was 46.4 µM; in the assay with IGROV1 ovarian, 46.3 µM; in the assay with MDA-MB-435, more than 100 µM. The TGI was 38.1 µM in the assay on OVCAR-3 ovarian; 31.6 µM with OVCAR-4 ovarian; 39.5 µM with SNB-19 CNS; 95.6 µM with UACC-257 melanoma; more than 100 µM in the assay with UO-31 renal.
